Consider 99 molecules from ChEMBL document CHEMBL3507680, “University of Dundee, Gates Library screen for HepG2 cell viability”.

Each structure is given as a SMILES string.

This series is described as follows: Human HepG2 cell viability assay in 384 well format. As to conditions: HepG2 cells, read-out: Inhibition. The arrangement: dose 125 nL, time 70.5 hour; cytotoxicity at 70.5 h: concentration not given beside the values. The series is classed as toxicity, cell-based.
For `CC(C)c1noc(C(C)Nc2nccc(CCC(F)(F)F)n2)n1` (centres undefined), the cytotoxicity at 70.5 h is -10.8%.
The result for `CC(C)(O)CN1CCN(C(=O)c2ccc(Cl)c3cccnc23)CC1` reads 26%.
Under `Cc1ccc(C2CCCCCN2C(=O)Nc2cn[nH]c2)o1` (centres undefined) stands -6.84%; under `CCc1c(C)nn2c(O)cc(C3CCN(C(=O)c4ccccn4)C3)nc12` (centres undefined), -2.35%; under `CC(NCc1ccc(OCc2nccn2C)cc1)c1cccnc1` (centres undefined), -9.04%.
Under `Cc1nc(CN2CCCC(N(C)CC3(O)CCCCC3)C2)no1` (centres undefined) stands 0.0355%; under `Cc1cc(-c2ccc(=O)n(CCNC(=O)C3CCCCC3)n2)c(C)o1`, -1.98%.
`COc1cc2[nH]c(=O)c(CN3CCCC3C)cc2c(OC)c1OC` (centres undefined): the cytotoxicity at 70.5 h was -6.4%.
For the molecule `CCN(CC)C(=O)CN(C)C(=O)c1cccn1CCc1ccccc1`, the cytotoxicity at 70.5 h is -3.38%.
Under `Cc1nn(C2CCCC2)c2c1C(c1ccc3c(c1)OCO3)SCC(=O)N2` (centres undefined) stands -12.2%; under `CCC(Nc1nccc(C2CCCC2)n1)c1ccncc1` (centres undefined), 3.69%; under `Cc1ccsc1CNC(=O)CSc1nnc[nH]1`, -11.1%.
For `CNC(=O)c1nc2c(s1)CCN(C(=O)c1cccnc1)CC2`, the cytotoxicity at 70.5 h is -0.11%.
The result for `CCOc1ccc(NCC(=O)NCC(=O)N2CCCC2)c(C(F)(F)F)c1` reads -11.7%; that for `CCc1nc(CN2CCCC(NCc3cnc(C)s3)C2)no1` (centres undefined), 22.5%; that for `CSCC(C)N(C)S(=O)(=O)c1ccc(Cl)cc1C#N` (centres undefined), -5.66%.
Under `O=C(NCCC(=O)N1CCCC1)c1ccc(SCc2cccnc2)cc1` stands -8.9%.
Under `COC(=O)[C@@H](NC(=O)c1coc(COc2cccc(F)c2)n1)C(C)C` stands 4.83%; under `Cc1cccc(N(CCC(N)=O)C(=O)c2cc(-n3cccn3)ccn2)c1`, -12%; under `COc1ccccc1C(=O)NCC(c1cccn1C)N1CCOCC1` (centres undefined), -6.22%.
For the molecule `CN(C)C(CNCc1nc(-c2ccsc2)no1)c1cccs1` (centres undefined), the cytotoxicity at 70.5 h is -8.94%.
The result for `CS(=O)(=O)c1cncnc1C1CCCN(C(=O)Cc2ccccc2F)C1` (centres undefined) reads -7.69%; that for `CN(C)C(=O)CN1C[C@@H]2OCCN(c3ncc(F)cn3)[C@@H]2C1`, 0.597%.
The result for `CC1CN(C(=O)NCCCn2cncn2)CCO1` (centres undefined) reads -1.85%.
Under `CCC(NC(=O)c1cc(NC(C)=O)ccc1Cl)c1cc(C)ccn1` (centres undefined) stands 9.03%.
On to `Cc1nc(CN2CCO[C@@H]3CN(C(=O)CC4CC4)CC[C@@H]3C2)cs1`, for which the cytotoxicity at 70.5 h was -13.3%.
Under `Cc1c(Cl)cccc1NCc1nc2n(n1)CCCCC2` stands -7.61%; under `O=C(NCC1CC[C@@]2(CNCCOC2)O1)c1cccnc1` (some centres undefined), -2.12%; under `COc1ccc(CN2CC[C@@H](N)[C@@H](OC)C2)cc1Cn1cncn1`, -6.47%.
As to `COc1ccc(C(=O)CCC(=O)NCc2c(C)noc2C)cc1F`, the cytotoxicity at 70.5 h worked out at 23.7%.
Consider `CC1(C)CN(CC(O)C(C)(C)C)C(=O)CN(C(=O)c2ccccc2)C1` (centres undefined), for which the cytotoxicity at 70.5 h is -4.32%.
As for `COc1cccc(-c2noc3c2CN(c2ncnc4c2CCC4)CC3)c1`, the cytotoxicity at 70.5 h was -6.28%.
Under `CCN1CCCC12CCN(C(=O)c1ccsc1)CC2` stands -7.76%; under `CC1=Nc2c(c(=O)[nH]n2C(C)C)C(c2ccccc2)S1` (centres undefined), -3.86%; under `COCCNC(=O)C1(Cc2ccccc2-c2ccncc2)CCOCC1`, -9.35%.
Turning to `CCCN1CCN(Cc2cccc(OC(C)C)c2)[C@H]2CS(=O)(=O)C[C@H]21`, the cytotoxicity at 70.5 h came out at 12.5%.
The result for `O=C(c1ccc(S(=O)(=O)NCc2ccon2)cc1)N1CCOCC1` reads 19.9%; that for `CCCNC(=O)Cn1c(-n2nc(C)cc2C)nc(CCC)cc1=O`, 3.03%.
Regarding `Cc1nn(C)c(N(C)C)c1CNCCCN(C)S(C)(=O)=O`, the cytotoxicity at 70.5 h was -6.18%.
Consider `Cc1cnc(C(=O)N2C[C@@H]3[C@@H](C2)OCC(=O)N3CC2CCCC2)cn1`, for which the cytotoxicity at 70.5 h turned out to be 15.5%.
Under `Cc1ccc2c(n1)N(CCn1cccn1)CCN(C(=O)NC1CC1)C2` stands -10.7%; under `O=C(CCn1c(C(F)F)cc2cccnc21)NC1CCCCC1`, -5.83%; under `Cc1noc(C(C)N2CCN(CC(=O)N3CCOCC3)CC2)n1` (centres undefined), 24%.
Take `COc1cccc(N2CCN(C(=O)c3noc4c3CCCCC4)CC2)c1`: the cytotoxicity at 70.5 h was -4.22%.
The result for `Cc1ccc(CN2CCn3c(C(=O)N(C)C)cnc3C2)cc1` reads 2.94%.
Under `CC1=Nc2c(c(=O)[nH]n2C(C)C)C(c2ccc3c(c2)OCCO3)S1` (centres undefined) stands 7.71%; under `Cc1c(Br)cnn1CC(=O)Nc1ccon1`, -7.55%; under `Cc1nc(CN2CCC(NS(C)(=O)=O)CC2)co1`, -9.09%.
For `Cc1[nH]c2c(F)cccc2c1CC(=O)N1CCN(C2CCSCC2)CC1`, the cytotoxicity at 70.5 h was -19.7%.
With `CCN(Cc1nc(Cc2ccccc2)no1)C1CC1`, the cytotoxicity at 70.5 h is -4.11%.
The result for `Cc1ncccc1C(=O)NC1(c2cccc(F)c2)CCOCC1` reads -3.77%.
Under `c1ccc(-n2cc(CNC3CCc4ncnn4C3)cn2)cc1` (centres undefined) stands -4.52%; under `CC1CCN(c2nc(O)cc(C3CC(=O)N(C4CCCCC4)C3)n2)CC1` (centres undefined), -8.25%.
Under `O=C(c1ccc(F)c(F)c1)N1CCCC1CN1CCCC1` (centres undefined) stands -1.66%; under `COc1ccc(S(=O)(=O)C(F)(F)F)cc1NC(=O)CSC`, -1.98%.
Regarding `Cc1cc(Cl)ccc1NCC(=O)Nc1cc(C(C)(C)C)no1`, the cytotoxicity at 70.5 h was -6.23%.
For `CC(CNC(=O)c1ccncc1F)Oc1ccc(F)cc1` (centres undefined), the cytotoxicity at 70.5 h was -0.61%.
The result for `CN1CCCN(c2ncnc(N3CCOCC3)c2N)CC1` reads -6.57%.
Under `CCC(=O)NC1CCCN(c2cncc(OCc3ccccc3)n2)C1` (centres undefined) stands -0.318%; under `CCCN(c1ccccc1C(=O)O)S(=O)(=O)c1cccc2cccnc12`, -10.2%; under `O=C(N1CCCC1)N1CCOCC2(CCN(Cc3cccs3)C2)C1` (centres undefined), 29.2%.
Regarding `COc1ccc(CC(=O)NC2(C)CCS(=O)(=O)C2)cc1F` (centres undefined), the cytotoxicity at 70.5 h worked out at 0.396%.
The result for `CCN1CCC[C@@H]1CNC(=O)c1cc(COc2ccccc2)[nH]n1` reads -1.42%.
Under `Cc1cccc(NC(=O)C2CCCN2C(=O)c2ccco2)c1C` (centres undefined) stands 11.4%.
Turning to `CCC(=O)Nc1cccc(OCC(=O)N(C)Cc2ccon2)c1`, the cytotoxicity at 70.5 h amounted to 8.51%.
Under `CC(C)NC(=O)C1CN(C(=O)Nc2cccc(F)c2)CC12CCOCC2` (centres undefined) stands -6.98%; under `Cc1ccc(CN2CCC3(CCCN(C(=O)N(C)C)C3)C2)cc1` (centres undefined), -6.47%; under `CC(=O)N1CC(=O)N(c2cnn(C)c2)CC12CCN(Cc1nccs1)C2` (centres undefined), -7.04%.
The result for `CSCC(C)(O)CNS(=O)(=O)c1cccc(C)c1` (centres undefined) reads 6.12%.
Under `O=C(c1ccccn1)N1C[C@H]2CCC[C@@]2(COCC2CCOCC2)C1` stands -10.8%.
`COc1ccc(CN2CC(O)CN(C(=O)OCC(C)(C)C)CC2=O)cc1` (centres undefined): the cytotoxicity at 70.5 h is -2.24%.
Under `O=C(Nc1ccc(CCN2CCC(O)CC2)cc1)C1CCCCC1` stands -2.92%; under `O=c1cc(Cn2ccnc2)nc2n1CCCN(S(=O)(=O)C1CC1)C2`, -11.3%; under `CN1CC2(CCN(S(=O)(=O)C3CC3)CC2)c2ccccc21`, 11%.
The result for `CNC(=O)NC(=O)CCN1CCOC(c2ccc(Br)cc2)C1` (centres undefined) reads -7.41%; that for `Cc1nonc1C(=O)N1CCc2c(ncn2CCc2ccccc2)C1`, -7.1%; that for `CCCNC(=O)c1nn(CC)cc1NC(=O)c1cn(C)nc1C`, -12.7%.
On to `O=c1cc(N2CCCCC2)cnn1C[C@H](O)CO`, for which the cytotoxicity at 70.5 h is -3.44%.
For `Cc1cccc(COc2ccc(NC(=O)C(C)NC(N)=O)c(C)c2)c1` (centres undefined), the cytotoxicity at 70.5 h was -9.19%.
Under `Nc1nonc1C(=O)N1Cc2ccccc2OC2(CCOCC2)C1` stands 2.48%.
The result for `Cc1noc(C)c1CN1CCC2(CC1)CN(c1ccccn1)CCO2` reads 17.3%.
Under `CNS(=O)(=O)CC1CCCN1c1ccc(Cl)cn1` (centres undefined) stands -1.45%; under `CC(=O)N1CCOC[C@H](OCC(=O)N(C)C)C1`, 0.496%.
For `CCN1CCN(C2CCN(Cc3nnc(C4CC4)o3)CC2)C1=O`, the cytotoxicity at 70.5 h was determined as 12.8%.
Under `C[C@@H](CO)Nc1cc(-c2cn[nH]c2)ncn1` stands -0.96%; under `Clc1cncc(NCc2cccc(OCCN3CCOCC3)c2)n1`, -8.21%; under `CCOC(=O)N1CCN(C(=O)Cn2ccc3ncccc3c2=O)CC1`, -8.19%.
Under `CC(=O)N1CCCC1c1ccc(C(=O)N2CCOCC2)s1` (centres undefined) stands 14.5%; under `O=C1CC(NS(=O)(=O)c2ccc3ccccc3c2)CN1` (centres undefined), -5.96%; under `O=C(c1ccco1)N1CCN(Cc2nc(C3CC3)no2)CC1`, -5.91%.
For `CC(C(=O)N1CCC(Cc2ccc(F)cc2)CC1)n1ccnc1` (centres undefined), the cytotoxicity at 70.5 h is 20.4%.
The result for `CO[C@@H]1CCN(Cc2ccoc2)[C@H]1Cc1ccccc1` reads -5.28%; that for `O=C(CN1CCNC1=O)NCc1ccc2sccc2c1`, -9.13%; that for `CCc1ccc(C2CCCN2C(=O)NCC(=O)NCC(C)C)o1` (centres undefined), 21.4%.
The result for `Cc1cnn(CCNCc2ccc(OCc3csc(C)n3)cc2)c1` reads -4.31%; that for `CS(=O)(=O)N1CCC(c2cnc(-c3cn[nH]c3)cn2)CC1`, 0.854%.
The result for `CNc1cc(C)nc(N2C[C@H](NC(=O)C3CCOCC3)[C@@H](C3CC3)C2)n1` reads 1.67%; that for `CC(Cc1ccccc1Br)NC(=O)CCS(C)(=O)=O` (centres undefined), 27.4%; that for `CCc1n[nH]c(C2CN(C(=O)CCc3cscn3)CCO2)n1` (centres undefined), 1.24%.
